Assay results reported in patent publication US10596190B2, “Method for reducing ototoxicity in pediatric patients receiving platinum-based chemotherapy” (priority 2017, dated 2020).
Read-outs that look alike come from different tables or passages of the source.

Key:
[1] = system: patients receiving Cisplatin chemotherapy for standard risk hepatoblastoma; format: in vivo, human
From the text: The control arm included cisplatin only treated patients and the test arm including cisplatin treated patients followed by administration of STS.
The primary end point of the study was the rate of Brock grade ≥1 hearing loss determined after end of trial treatment or at an age of at least 3.5 years, whichever was later. Secondary end-points included: response to preoperative chemotherapy, complete resection, complete remission, event free survival (EFS), overall survival (OS), toxicity as graded by CTCAE v 3.0, long-term renal clearance, and feasibility of central audiology review
• Pre-operative randomised 1:1 chemotherapy (4 courses of Cisplatin, with or without STS, every second week) • Surgical removal of all remaining tumour lesions.
For all patients, the pre-surgery courses were given on day 1, 15, 29 and 43 (exceptionally, if surgery was delayed, courses could also be given on day 57 and 71). Post-surgery courses were started as soon as possible, but within 21 days with two courses given on day 1 and 15. […] The following treatment schedules were followed:
Administration Pre-hydration • At least 3 hours pre-hydration with 2.5% dextrose/0.45% saline • Run at 200 ml/m2/hr (total volume 600 ml/m^2) Cisplatin infusion over 6 hours • Cisplatin in 0.9% sodium chloride. […]

[2] = in a solution of sodium chloride; cited from earlier work
[3] = cited from earlier work
[4] = system: pediatric patients receiving cisplatin; conditions: for Incidence of hearing loss / Hearing loss: 4 weeks; for Mean change in hearing threshold: baseline to 4 weeks after cisplatin, negative = better threshold
From the text: The study was designed as a multicentre, randomised, open-label, phase 3 clinical trial. Patients were enrolled at 38 participating Children's Oncology Group (COG) hospitals in the USA and Canada. Written consent or assent from participants or their legal guardians were obtained before registration. The study was approved by the US National Cancer Institute (NCI) Central Institutional Review Board and site institutional review boards. Co-enrollment onto a companion observational cohort study of ototoxicity grading scales was mandatory. Participants in the study were aged 1-18 years at study entry and were newly diagnosed with hepatoblastoma, germ cell tumour, medulloblastoma or CNS primitive neuroectodermal tumour, neuroblastoma, osteosarcoma, or other cancer types treated with cisplatin.
Key eligibility criteria included planned cumulative cisplatin dose of 200 mg/m^2 or more and infusion duration of 6 h or less; performance score of 50 or more by the Karnofsky (>16 years) or Lansky (≤16 years) scales; no previous cisplatin or carboplatin treatment; no known thiol hypersensitivity; and normal institutional laboratory values reflecting haematological, renal, and hepatic function. Normal hearing was required before enrolment as defined by hearing thresholds of 20 dB hearing level (HL) or less at 500-8000 Hz when measured with earphones or 25 dB HL or less when measured in the sound field, or as defined by brainstem auditory evoked response thresholds equivalent to behavioural thresholds of 20 dB HL or less. Previous cranial irradiation was initially not allowed but later permitted, provided hearing was normal, by a protocol amendment (Mar. 31, 2010) to augment trial recruitment. Patients were not eligible if they were registered on a cancer directed COG therapeutic study to avoid potential confounding of the primary aims by the ACCL0431 randomization.
The randomization was centrally computer-generated by the COG trial management system. Allocation was electronically concealed to all investigators, clinicians, and participants. Site research staff did the enrolment, entering eligibility confirmation and specification of stratification factors into the COG trial management system, and receiving the electronically generated allocation for the site. Randomization was 1:1 and was initially stratified into four groups defined by age (<5 years or ≥5 years) and duration of cisplatin infusion (<2 h or ≥2 h). Later, we added one separate stratum for eligible participants who had previously received cranial irradiation, irrespective of age or duration of cisplatin infusion. Randomization was masked for central reviewers of audiometry data, but was not placebo controlled for participants or treating clinicians to minimise complexity and cost for participating sites.
(§1) Cisplatin was administered as specified by each participant's cancer treatment plan. For participants randomly assigned to the control group, the cisplatin containing treatment regimen alone was to be administered. […] Concurrent use of other ototoxic drugs (eg, aminoglycosides and loop diuretics) was discouraged by protocol for all participants but captured in data reporting.
Hearing assessments were done at baseline, up to 8 days before each cisplatin course, 4 weeks after completion of the final cisplatin course, and 1 year later. Audiometry included measurement of bilateral pure tone air conduction thresholds at 500-8000 Hz with earphones or in the sound field using paediatric hearing assessment methods; otoscopy; immittance evaluation of middle ear function; and evoked otoacoustic emissions, if available. For participants unable to cooperate due to very young age, developmental disability, or medical status, brainstem auditory evoked response thresholds were to be measured instead.
Audiological testing was completed using standard clinical audiometers, middle ear analyzers, evoked potentials systems, and evoked otoacoustic emission OAE systems (if available).

[5] = system: pediatric patients receiving cisplatin
From the text: (§2) Secondary endpoints were frequency-specific hearing loss at 4 weeks (for 500 Hz, 1000 Hz, 2000 Hz, 4000 Hz, and 8000 Hz), haematological and renal toxicity, event free survival (defined as the time from study enrolment until disease relapse or progression, diagnosis of a second malignant neoplasm, or death, whichever came first), and overall survival (defined as the time from enrolment to death or last date confirmed alive). By protocol amendment on Mar.
We estimated the probability of remaining event free as a function of time post-enrolment using the method of Kaplan and Meier. We compared risk of event across groups defined by randomised regimen using the log-rank statistic. We generated relative hazard ratios (RHR) and 95% CIs by fitting a relative-risk regression model, using partial likelihood where the model contained the characteristic of interest as the only variable. We computed survival estimates as 3-year event-free survival and 3-year overall survival. We did a post-hoc analysis of event-free survival and overall survival by extent of disease using the same methods. We considered all eligible participants in the survival analyses by intention to treat. We did all statistical calculations using SAS (version 9.4) or Stata (version 14).

[6] = system: pediatric patients receiving cisplatin; assay: Phase 3 trial of Example 1: haematological and renal toxicity, adverse events
Description: as §1, §2
For haematological and renal toxicity, denominators represent the number of participants who completed the required toxicity assessment during each cycle. For both types of toxicity, we assessed the hypothesis of no difference in incidence using a χ^2 test of proportions.

[7] = system: small cell lung cancer cell cultures; conditions: cited from earlier work
[8] = all eligible, 61 participants assigned

Question: Which results are given for `N.N.[Cl][Pt][Cl]` [cisplatin]?
Answer: Patients having Brock grade 0 or little to no hearing loss ([1]; by treatment arm): below 40%; Incidence rate of Brock ≥1 hearing loss ([1]; by treatment arm (cisplatin only or cisplatin followed by STS)): 67%; Stability post dilution [2]: ≤ 7 days

Question: Which results are given for sodium thiosulfate?
Answer: Excreted unchanged in the urine ([3]; following IV injection): Up to 95%; Biological half-life ([3]; in vivo): 0.65 hours; Biological half-life, range dependent on dose ([3]; in vivo): 16.5-182 minutes; Hearing loss (ASHA criteria), proportion of participants ([4]; 4 weeks after final cisplatin, all assessable participants (49 in STS group)): 28.6%; Incidence of hearing loss ([4]; after cisplatin infusion of 2-6 h): 41.7%; Incidence of hearing loss ([4]; after cisplatin infusion of less than 2 h): 16.0%; Incidence of hearing loss ([4]; older patients (5 years or more)): 31.4%; Incidence of hearing loss ([4]; participants younger than 5 years): 21.4%; Hearing loss ([4]; post-hoc, eight irradiated participants excluded): 26.7%; Hearing loss ([4]; stratum of previous cranial irradiation): 50%; Change between groups (Control vs STS) in mean hearing threshold change ([4]; 500 Hz): 0.4; Mean change in hearing threshold ([4]; 500 Hz): −1.5; Change between groups (Control vs STS) in mean hearing threshold change ([4]; 1000 Hz): 0.4; Mean change in hearing threshold ([4]; 1000 Hz): −0.7; Change between groups (Control vs STS) in mean hearing threshold change ([4]; 2000 Hz): 1.8; Mean change in hearing threshold ([4]; 2000 Hz): −1.2; Change between groups (Control vs STS) in mean hearing threshold change ([4]; 4000 Hz): 8.5; Mean change in hearing threshold ([4]; 4000 Hz): 1.1; Change between groups (Control vs STS) in mean hearing threshold change ([4]; 8000 Hz): 7.3; Mean change in hearing threshold ([4]; 8000 Hz): 9.7; ASHA-defined hearing loss ([4]; at 1 year, post-hoc analysis): 28%; Deaths, number [5, 8]: 17; Events, number [5, 8]: 26; Deaths, number ([5]; disseminated disease): 11; Events, number ([5]; disseminated disease): 12; Event-free survival vs control group ([5]; disseminated disease (n=47)): no difference; Overall survival vs control group ([5]; disseminated disease (n=47)): significantly lower; 3-year event-free survival ([5]; disseminated disease, post-hoc): 42%; 3-year overall survival ([5]; disseminated disease, post-hoc): 45%; 3-year event-free survival ([5]; entire sample): 54%; 3-year overall survival ([5]; entire sample): 70%; Event-free survival or overall survival vs control group ([5]; entire sample): no significant difference; Deaths, number ([5]; localised disease): six; Events, number ([5]; localised disease): 14; Event-free survival or overall survival vs control group ([5]; localised disease (n=77)): no significant difference; 3-year event-free survival ([5]; localised disease, post-hoc): 60%; 3-year overall survival ([5]; localised disease, post-hoc): 83%; Hypokalaemia (most common non-haematological adverse event), participant cycles ([6]; 25 of 147 participant cycles): 17%; Aggregate nephrotoxicity, participant cycles affected ([6]; 37 of 147 participant cycles): 25%; Grade 3-4 neutropenia, participant cycles ([6]; 117 of 177 participant cycles, irrespective of attribution): 66%; Haematological toxicity, participant cycles affected ([6]; 137 of 177 participant cycles): 77%; Serious adverse events reported, number ([6]; in 26 patients): 194; Haematological serious adverse events, number ([6]; in vivo): 70; Hypophosphataemia and hypokalaemia vs control group ([6]; in vivo): more common; Increased creatinine or reduced glomerular filtration rate meeting CTCAE grade 3 threshold ([6]; in vivo): no cases; Non-haematological serious adverse events, number ([6]; in vivo): 85; Haematological serious adverse events deemed possibly related, number ([6]; of 70): four; Haematological serious adverse events deemed unlikely related, number ([6]; of 70): 13; Haematological serious adverse events deemed unrelated, number ([6]; of 70): 53; Haematological serious adverse events probably or definitely related ([6]; of 70): none; Non-haematological serious adverse events deemed possibly related, number ([6]; of 85): 11; Non-haematological serious adverse events deemed unlikely related, number ([6]; of 85): 25; Non-haematological serious adverse events deemed unrelated, number ([6]; of 85): 49; Non-haematological serious adverse events probably or definitely related ([6]; of 85): none; Serious adverse events deemed possibly related, number ([6]; of 194): 20; Serious adverse events deemed unlikely related, number ([6]; of 194): 62; Serious adverse events deemed unrelated, number ([6]; of 194): 112; Serious adverse events probably or definitely related ([6]; of 194): none; Serious adverse events: decreased platelet count, number ([6]; of 194, in 12 participants): 23; Serious adverse events: decreased neutrophil count, number ([6]; of 194, in 14 participants): 26; Serious adverse events: anaemia, number ([6]; of 194, in ten participants): 21; Effect of STS on cytotoxicity of etoposide ([7]; immediate or delayed addition of STS, incubation for 72 hours): no reduction of cytotoxicity; Effect of STS on anti-tumor activity of doxorubicin, carmustine (BCNU), paclitaxel or methotrexate ([7]; similar studies): no reduction of anti-tumor activity
